Read-outs that look alike come from different tables or passages of the source. Bridges are numbered along the chain shown (N, C = ends). Where no end group is shown, it is not given here.
Legend:
[1] = molecular target: T1, KV1.3 (Homo sapiens, UniProt P22001); assay: Whole-cell patch-clamp, KV1.3; type: cell-based; details: whole-cell recording, HEK293T and CHO cells transfected, 1000-ms depolarizing pulse of 10 mV from −80 mV, pH 7.3, room temperature, Hill fit
T1 construct: expressed in transfected cells; host or cells: HEK293T and CHO cells
Procedure: (§1) HEK293T and CHO cells were cultured as described in our previous work. The plasmid DNA (5μL, 1 μg/μL) of KV1.3 and KV7.4 channel was mixed with lipofectamine at a ratio of 1:1 in 200 μL Opti-MEM for 15–20 min, and the mixture was transferred to the cells plated in 20 mm cell culture dish for 12 h. After 24 h transfections, electrophysiological experiments were carried out at room temperature.
(§2) The cells expressing KV1.3 and KV7.4 were digested and plated on glass coverslips before current recording. The HEKA EPC10 amplifier (HEKA Elektronik, Ludwigshafen, Germany) was used to record currents in whole cells under the control of PATCHMASTER software (HEKA Elektronik, Ludwigshafen, Germany). A thin-wall borosilicate glass (A-M Systems) was used to pull patch pipettes and then the pipettes were fire-polished to 3–4 megohm. For whole-cell recordings, the capacity current was minimized by amplifier circuitry, and the series resistance was compensated by 30% to 65%. For KV1.3 and KV7.4 channel, intracellular solution contained 140 mM KCl, 10 mM EGTA, 2 mM MgCl2, 1 mM CaCl2, 10 mM HEPES (pH 7.3, adjusted with KOH), and extracellular solution contained 150 mM NaCl, 0.5 mM CaCl2, 5 mM KCl, 1.2 mM MgCl2, 10 mM HEPES (pH 7.3, adjusted with NaOH), and the current traces were tested by a 1000-ms depolarizing pulse of 10 mV from a holding voltage of −80 mV. The Hill logistic equation shown below was used to fit the Dose–response curves:y = 1 − (1 − fmax)/[1 + ([Tx]/IC50) n](1) where n is an empirical Hill coefficient, and fmax is the fraction of current resistant to inhibition at high toxin (Tx) concentration.

[2] = molecular target: T2, KV7.4 (Homo sapiens, UniProt P56696); assay: Whole-cell patch-clamp, KV7.4; type: cell-based; details: whole-cell recording, HEK293T and CHO cells transfected; 1000-ms depolarizing pulse of 10 mV from −80 mV; pH 7.3; room temperature; Hill fit; n = 5 cells
T2 construct: expressed in transfected cells; host or cells: HEK293T and CHO cells
Procedure: as §1
as §2, with “The Hill logistic equation shown below was used to fit the Dose–response curves:y = 1 − (1 − fmax)/[1 + ([Tx]/IC50) n](1) where n is an empirical Hill coefficient, and fmax is the fraction of current resistant to inhibition at high toxin (Tx) concentration.” left out

[3] = ref [8]; cited from earlier work
From the text: With over 3000 species, centipedes, arthropods of the class Chilopoda are widely distributed in both tropical and subtropical regions. Their first pair of legs have been modified into strong mandibles and venomous fangs called forcipules that play a critical role in defense and predation. Centipede stings occur frequently in areas, such as Hawaii, Brazil, Australia, Taiwan, and Japan, evoking an issue of social health care. Centipede toxins are composite mixtures, which are responsible for both local and systemic reactions. Recently, we have identified and characterized several pep ...

[4] = n = 5 cells, read-out: IC50 on KV1.3 (mutants)

T1 sequence (P22001 whole entry): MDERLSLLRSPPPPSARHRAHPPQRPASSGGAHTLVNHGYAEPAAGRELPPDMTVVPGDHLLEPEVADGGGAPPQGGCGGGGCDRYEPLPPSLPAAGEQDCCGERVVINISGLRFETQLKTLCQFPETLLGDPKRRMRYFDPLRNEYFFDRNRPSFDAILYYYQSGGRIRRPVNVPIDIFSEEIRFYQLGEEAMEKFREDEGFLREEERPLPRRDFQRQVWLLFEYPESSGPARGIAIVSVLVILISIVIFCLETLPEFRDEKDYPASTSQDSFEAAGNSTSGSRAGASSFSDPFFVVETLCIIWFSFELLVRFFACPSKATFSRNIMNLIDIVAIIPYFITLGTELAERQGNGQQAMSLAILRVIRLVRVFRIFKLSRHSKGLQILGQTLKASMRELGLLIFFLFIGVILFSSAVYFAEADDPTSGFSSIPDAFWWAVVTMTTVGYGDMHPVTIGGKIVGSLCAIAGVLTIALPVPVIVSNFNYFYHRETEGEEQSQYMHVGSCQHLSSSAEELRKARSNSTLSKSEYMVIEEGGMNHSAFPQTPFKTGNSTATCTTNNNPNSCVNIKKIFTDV
T2 sequence (P56696 whole entry): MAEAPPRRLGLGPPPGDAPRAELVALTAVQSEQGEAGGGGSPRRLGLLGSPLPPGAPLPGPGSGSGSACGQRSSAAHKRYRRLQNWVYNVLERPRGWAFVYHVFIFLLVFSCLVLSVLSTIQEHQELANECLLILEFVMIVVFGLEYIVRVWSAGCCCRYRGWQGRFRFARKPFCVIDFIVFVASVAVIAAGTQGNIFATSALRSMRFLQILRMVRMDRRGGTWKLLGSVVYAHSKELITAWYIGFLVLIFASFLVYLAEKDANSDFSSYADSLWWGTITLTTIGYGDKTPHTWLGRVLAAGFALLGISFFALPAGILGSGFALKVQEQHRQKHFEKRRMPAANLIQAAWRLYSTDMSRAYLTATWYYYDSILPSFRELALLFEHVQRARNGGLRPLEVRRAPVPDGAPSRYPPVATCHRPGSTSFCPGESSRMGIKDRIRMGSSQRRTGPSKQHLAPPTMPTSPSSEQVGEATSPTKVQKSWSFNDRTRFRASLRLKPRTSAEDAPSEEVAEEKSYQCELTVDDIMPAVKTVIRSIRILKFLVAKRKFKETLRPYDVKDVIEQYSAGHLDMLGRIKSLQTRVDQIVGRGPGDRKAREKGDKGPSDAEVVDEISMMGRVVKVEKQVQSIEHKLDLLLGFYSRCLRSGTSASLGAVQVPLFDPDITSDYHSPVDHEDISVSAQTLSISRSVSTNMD

Sequence	IC50 [1, 4]	IC50 [2]	lethal toxicity [3]	IC50 ([1]; n = 10 cells, read-out: IC50 on KV1.3)
EVIKKDTPYKARKFPYKSECLKACATSFTGGDESRIQEGKPGFFKCTCYFTTG (disulfide 20-46, 24-48) [SsTx_K11A]	507 ± 0.61 µM			
EVIKKDTPYKKAKFPYKSECLKACATSFTGGDESRIQEGKPGFFKCTCYFTTG (disulfide 20-46, 24-48) [SsTx_R12A]	22.23 ± 0.22 µM			
EVIKKDTPYKKRAFPYKSECLKACATSFTGGDESRIQEGKPGFFKCTCYFTTG (disulfide 20-46, 24-48) [SsTx_K13A]	526.1 ± 0.48 µM			
EVIKKDTPYKKRKFPYKSECLKACATSFTGGDESRIQEGKPGFFKCTCYFTTG (disulfide 20-46, 24-48) [SsTx, Ssm Spooky Toxin]		2.8 ± 0.23 µM	potent lethal toxicity by causing severe vessels and respiratory disorders or seizures	5.26 µM
